Test [1] deals with 3',5'-cyclic-AMP phosphodiesterase 4B (Homo sapiens, UniProt Q07343). Kind of test: Affinity Biochemical interaction: (Inhibition of enzyme activity, scintillation proximity assay with radiolabelled [3H]cAMP) EUB0002694a PDE4B. It counts as functional. Details: mode of action Inhibitor, recommended concentration 1 uM. A general note: In a scintillation proximity assay essentially only radioactivity close to the scintillant gives light.

For test [2], the target named is Ubiquitin carboxyl-terminal hydrolase 30 (Homo sapiens, UniProt Q70CQ3).
Sequence of Ubiquitin carboxyl-terminal hydrolase 30 (Q70CQ3 whole entry): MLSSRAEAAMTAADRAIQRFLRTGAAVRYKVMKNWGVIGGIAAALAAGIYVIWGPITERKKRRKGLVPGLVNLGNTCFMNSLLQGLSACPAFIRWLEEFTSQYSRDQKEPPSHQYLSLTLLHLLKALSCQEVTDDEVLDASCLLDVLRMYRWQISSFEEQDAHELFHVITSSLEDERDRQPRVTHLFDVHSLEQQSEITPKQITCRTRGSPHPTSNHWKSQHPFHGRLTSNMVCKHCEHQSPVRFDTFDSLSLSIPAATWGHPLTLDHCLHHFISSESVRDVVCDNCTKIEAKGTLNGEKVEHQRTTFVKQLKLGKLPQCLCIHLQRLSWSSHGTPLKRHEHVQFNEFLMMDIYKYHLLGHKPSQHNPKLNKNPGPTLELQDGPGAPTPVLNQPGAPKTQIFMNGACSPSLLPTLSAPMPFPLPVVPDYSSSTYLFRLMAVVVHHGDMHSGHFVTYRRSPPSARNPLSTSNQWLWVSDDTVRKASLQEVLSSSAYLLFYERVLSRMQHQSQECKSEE
Test [3] addresses Caspase-2 (Homo sapiens, UniProt P42575). Kind of test: Affinity Biochemical interaction: (enzymatic assay (cleavage of fluorogenic substrate)) EUB0002782a CASP2. It counts as functional. On the set-up: mode of action Inhibitor, recommended concentration 1 uM.
The target in test [4] is T1, Calpain-1 catalytic subunit (Homo sapiens, UniProt P07384). Briefly: Affinity Biochemical interaction: (inhibition of enzyme activity using a fluorogenic substrate) EUB0002786aAD CAPN1. Format: functional. On the set-up: mode of action Inhibitor, recommended concentration 1 uM.
T1 sequence (P07384 whole entry): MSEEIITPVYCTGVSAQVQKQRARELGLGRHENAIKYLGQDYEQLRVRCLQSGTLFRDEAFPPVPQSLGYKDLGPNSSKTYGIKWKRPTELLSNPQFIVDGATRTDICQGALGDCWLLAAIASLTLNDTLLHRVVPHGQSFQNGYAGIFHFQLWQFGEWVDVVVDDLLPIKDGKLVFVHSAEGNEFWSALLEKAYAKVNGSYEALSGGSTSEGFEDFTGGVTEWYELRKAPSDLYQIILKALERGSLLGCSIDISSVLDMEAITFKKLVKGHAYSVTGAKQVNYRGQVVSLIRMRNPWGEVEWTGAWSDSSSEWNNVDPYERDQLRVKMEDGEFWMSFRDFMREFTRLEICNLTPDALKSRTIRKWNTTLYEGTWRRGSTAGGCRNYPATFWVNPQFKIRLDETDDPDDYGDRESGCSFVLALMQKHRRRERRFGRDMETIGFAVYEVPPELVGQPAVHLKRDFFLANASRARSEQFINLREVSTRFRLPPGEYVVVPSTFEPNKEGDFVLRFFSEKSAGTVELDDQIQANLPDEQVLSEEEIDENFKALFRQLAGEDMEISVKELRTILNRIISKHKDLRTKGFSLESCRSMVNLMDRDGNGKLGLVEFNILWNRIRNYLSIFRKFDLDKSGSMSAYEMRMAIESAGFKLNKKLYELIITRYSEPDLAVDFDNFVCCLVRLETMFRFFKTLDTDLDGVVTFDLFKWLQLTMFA
Test [5] has as its target T1, Calpain-1 catalytic subunit. Briefly: Affinity Biochemical interaction: (inhibition of casein degradation, monitored by measuring generation of trichloroacetic acid-soluble peptides) EUB0002786aAD CAPN1. On the set-up: mode of action Inhibitor, recommended concentration 1 uM. Format: functional.
The target in test [6] is Calpain-2 catalytic subunit (Homo sapiens, UniProt P17655). Kind of test: Affinity Biochemical interaction: (inhibition of casein degradation, monitored by measuring generation of trichloroacetic acid-soluble peptides) EUB0002786aAD CAPN2. It counts as functional. Details: mode of action Inhibitor, recommended concentration 1 uM.
In test [7] the target is WD repeat-containing protein 5 (Homo sapiens, UniProt P61964). Kind of test: Affinity Biochemical interaction: (Time-resolved fluorescence energy transfer (TR-FRET) assay to determine the competitive binding affinity (Ki) against the MLL1-derived FITC-peptide probe) EUB0002769a WDR5. Format: functional. On the set-up: mode of action Inhibitor, recommended concentration 1 uM. For orientation: In TR-FRET formats the signal depends on donor and acceptor labels being close together.

Test [8] addresses Histone-lysine N-methyltransferase 2A (Homo sapiens, UniProt Q03164). Kind of test: Affinity Biochemical interaction: (H3K4 HMT inhibition assay to measure the effect on MLL1-mediated HMT activity) EUB0002769a MLL. It counts as functional. Details: mode of action Inhibitor, recommended concentration 1 uM.
Test [9] concerns the target cAMP and cAMP-inhibited cGMP 3',5'-cyclic phosphodiesterase 10A (Homo sapiens, UniProt Q9Y233). Briefly: Affinity Biochemical interaction: (inhibition of enzyme activity in cleaving radiolabelled substrate [3H]cAMP) EUB0002682aCl PDE10A. It counts as functional. Details: mode of action Inhibitor, recommended concentration 1 uM.
For test [10], the target named is Ubiquitin carboxyl-terminal hydrolase 7 (Homo sapiens, UniProt Q93009). Briefly: Affinity Biochemical interaction: (inhibition of enzyme activity in cleaving fluorogenic ubiquitin-rhodamine substrate) EUB0002755a USP7. It counts as functional. Details: mode of action Inhibitor, recommended concentration 1 uM.
The target in test [11] is Poly [ADP-ribose] polymerase 1 (Homo sapiens, UniProt P09874). Kind of test: Affinity Biochemical interaction: (inhibition of enzyme activity) EUB0002763a PARP1. Format: functional. Details: mode of action Inhibitor, recommended concentration 1 uM.
Sequence of Poly [ADP-ribose] polymerase 1 (P09874 whole entry): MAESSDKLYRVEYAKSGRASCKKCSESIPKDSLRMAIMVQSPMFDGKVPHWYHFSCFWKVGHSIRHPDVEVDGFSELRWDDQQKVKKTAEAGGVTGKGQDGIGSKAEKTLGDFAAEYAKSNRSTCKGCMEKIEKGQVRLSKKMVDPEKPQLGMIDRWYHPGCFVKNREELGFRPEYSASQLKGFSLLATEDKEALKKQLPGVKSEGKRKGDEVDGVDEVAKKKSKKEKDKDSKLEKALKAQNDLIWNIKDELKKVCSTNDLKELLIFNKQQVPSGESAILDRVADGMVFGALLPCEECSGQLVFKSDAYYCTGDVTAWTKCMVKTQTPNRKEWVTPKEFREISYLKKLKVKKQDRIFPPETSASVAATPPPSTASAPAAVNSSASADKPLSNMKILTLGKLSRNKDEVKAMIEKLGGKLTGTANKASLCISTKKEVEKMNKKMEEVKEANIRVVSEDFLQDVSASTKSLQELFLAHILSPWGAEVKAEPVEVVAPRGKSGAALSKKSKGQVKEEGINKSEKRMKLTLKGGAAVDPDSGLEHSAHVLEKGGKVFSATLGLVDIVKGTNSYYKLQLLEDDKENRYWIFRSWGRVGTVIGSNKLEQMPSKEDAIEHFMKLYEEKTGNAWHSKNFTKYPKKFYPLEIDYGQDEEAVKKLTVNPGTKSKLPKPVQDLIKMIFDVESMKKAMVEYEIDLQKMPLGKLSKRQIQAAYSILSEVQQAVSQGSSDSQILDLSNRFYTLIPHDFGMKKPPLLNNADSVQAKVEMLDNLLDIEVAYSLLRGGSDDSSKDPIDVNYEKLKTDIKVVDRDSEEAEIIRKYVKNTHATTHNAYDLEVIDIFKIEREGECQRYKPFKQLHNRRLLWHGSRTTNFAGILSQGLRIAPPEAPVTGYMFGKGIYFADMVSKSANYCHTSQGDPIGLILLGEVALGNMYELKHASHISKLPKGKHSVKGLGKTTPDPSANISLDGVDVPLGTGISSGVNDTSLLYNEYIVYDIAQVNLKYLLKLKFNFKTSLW
In test [12] the target is Poly [ADP-ribose] polymerase 2 (Homo sapiens, UniProt Q9UGN5). Briefly: Affinity Biochemical interaction: (inhibition of enzyme activity) EUB0002763a PARP2. Format: functional. Details: mode of action Inhibitor, recommended concentration 1 uM.
Sequence of Poly [ADP-ribose] polymerase 2 (Q9UGN5 whole entry): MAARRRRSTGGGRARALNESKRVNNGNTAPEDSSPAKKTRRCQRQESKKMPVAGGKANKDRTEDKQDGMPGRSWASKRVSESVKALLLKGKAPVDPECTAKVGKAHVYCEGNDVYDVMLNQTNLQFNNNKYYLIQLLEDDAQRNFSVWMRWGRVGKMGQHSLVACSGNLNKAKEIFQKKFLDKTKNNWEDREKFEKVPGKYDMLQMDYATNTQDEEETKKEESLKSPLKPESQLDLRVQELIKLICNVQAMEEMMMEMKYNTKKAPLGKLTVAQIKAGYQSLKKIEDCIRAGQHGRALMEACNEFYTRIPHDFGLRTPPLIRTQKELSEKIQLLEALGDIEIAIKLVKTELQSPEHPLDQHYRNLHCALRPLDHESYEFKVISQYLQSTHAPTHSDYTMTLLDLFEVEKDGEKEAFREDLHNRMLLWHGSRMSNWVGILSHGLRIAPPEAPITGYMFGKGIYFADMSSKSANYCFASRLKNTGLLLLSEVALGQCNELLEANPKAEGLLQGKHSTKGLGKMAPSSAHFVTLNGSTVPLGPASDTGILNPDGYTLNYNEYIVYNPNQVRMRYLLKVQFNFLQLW
Test [13] has as its target Ubiquitin carboxyl-terminal hydrolase 1 (Homo sapiens, UniProt O94782). Briefly: Affinity Biochemical interaction: (Ubiquitin-rhodamine 110 Assay for USP1 activity) EUB0002793a USP1. Format: functional. Details: mode of action Inhibitor, recommended concentration 1 uM.
Test [14] addresses Bromodomain-containing protein 4 (Homo sapiens, UniProt O60885). Briefly: Affinity Biochemical interaction: (TR-FRET) EUB0002661a BRD4. It counts as functional. On the set-up: mode of action Inhibitor, recommended concentration 1 uM.
For test [15], the target named is Cathepsin S (Homo sapiens, UniProt P25774). Briefly: Affinity Biochemical interaction: (inhibition of enzyme activity in cleaving fluorogenic substrate) EUB0002791a CTSS. It counts as functional. Details: mode of action Inhibitor, recommended concentration 1 uM.
Sequence of Cathepsin S (P25774 whole entry): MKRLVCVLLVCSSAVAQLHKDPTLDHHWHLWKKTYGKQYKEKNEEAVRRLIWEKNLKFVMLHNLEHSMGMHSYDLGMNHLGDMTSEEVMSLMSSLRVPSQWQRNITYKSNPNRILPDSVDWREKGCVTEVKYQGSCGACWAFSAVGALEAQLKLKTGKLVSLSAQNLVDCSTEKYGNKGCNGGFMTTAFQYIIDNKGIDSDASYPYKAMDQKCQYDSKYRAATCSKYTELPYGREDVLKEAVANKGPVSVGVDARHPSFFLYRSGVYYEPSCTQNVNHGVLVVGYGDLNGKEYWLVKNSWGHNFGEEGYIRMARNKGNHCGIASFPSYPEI
Test [16] addresses T2, Chromobox protein homolog 2 (Homo sapiens, UniProt Q14781). Briefly: Affinity Biochemical interaction: (Fluorescence polarisation (fluorescein conjugated)) EUB0002728a CBX2. On the set-up: mode of action Inhibitor, recommended concentration 1 uM. Format: functional. (Fluorescence polarisation rises when a labelled molecule tumbles more slowly, as on binding a larger partner.)

The target in test [17] is T2, Chromobox protein homolog 2. Briefly: Affinity Biochemical interaction: (thermal shift assay (non-derivatised)) EUB0002728a CBX2. On the set-up: mode of action Inhibitor, recommended concentration 1 uM.
Test [18] addresses cGMP-specific 3',5'-cyclic phosphodiesterase (Homo sapiens, UniProt O76074). Kind of test: Affinity Biochemical interaction: (inhibition of enzyme activity in cleaving radiolabelled substrate [3H]cGMP) EUB0002742aCl PDE5A. It counts as functional. On the set-up: mode of action Inhibitor, recommended concentration 1 uM.
Test [19] addresses sn-1-specific diacylglycerol lipase ABHD11 (Homo sapiens, UniProt Q8NFV4). Kind of test: Affinity Biochemical interaction: (fluorescence-based biochemical gel-based Activity-Based Protein Profiling (ABPP)) EUB0002643a ABHD11. It counts as functional. Details: mode of action Inhibitor, recommended concentration 1 uM.
For test [20], the target named is NAD-dependent protein deacetylase sirtuin-7 (Homo sapiens, UniProt Q9NRC8). Kind of test: Affinity Biochemical interaction: (inhibition of deacetylase activity, luminescence measurement using the SIRT7 assay kit) EUB0002717a SIRT7. Details: mode of action Inhibitor, recommended concentration 1 uM. Format: functional.
The target of test [21] is Dipeptidyl peptidase 1 (Homo sapiens, UniProt P53634). Kind of test: Affinity Biochemical interaction: (No data available) EUB0002789aCl CTSC. Details: mode of action Inhibitor, recommended concentration 1 uM.
Sequence of Dipeptidyl peptidase 1 (P53634 25-134 limits assumed): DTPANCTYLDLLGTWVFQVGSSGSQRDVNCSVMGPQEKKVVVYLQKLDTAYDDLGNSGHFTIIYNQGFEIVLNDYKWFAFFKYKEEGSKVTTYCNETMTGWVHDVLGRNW
Sequence of Dipeptidyl peptidase 1 (P53634 231-394 limits assumed): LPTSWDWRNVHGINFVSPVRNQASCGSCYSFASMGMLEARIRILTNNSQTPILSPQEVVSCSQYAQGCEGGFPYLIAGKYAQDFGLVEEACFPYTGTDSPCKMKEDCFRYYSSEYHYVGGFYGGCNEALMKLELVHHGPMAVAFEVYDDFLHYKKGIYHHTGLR
Sequence of Dipeptidyl peptidase 1 (P53634 395-463 limits assumed): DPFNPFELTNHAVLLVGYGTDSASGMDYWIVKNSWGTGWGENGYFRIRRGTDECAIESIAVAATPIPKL
Test [22] has as its target Histone acetyltransferase p300 (Homo sapiens, UniProt Q09472). Briefly: Affinity Biochemical interaction: (inhibition of acetyl-transferase reaction) EUB0002628aAD EP300. Format: functional. Details: mode of action Inhibitor, recommended concentration 1 uM.
Test [23] deals with Menin (Homo sapiens, UniProt O00255). Kind of test: Affinity Biochemical interaction: (Enzymatic assay) EUB0002767a MEN1. It counts as functional. Details: mode of action Inhibitor, recommended concentration 1 uM.
Sequence of Menin (O00255 whole entry): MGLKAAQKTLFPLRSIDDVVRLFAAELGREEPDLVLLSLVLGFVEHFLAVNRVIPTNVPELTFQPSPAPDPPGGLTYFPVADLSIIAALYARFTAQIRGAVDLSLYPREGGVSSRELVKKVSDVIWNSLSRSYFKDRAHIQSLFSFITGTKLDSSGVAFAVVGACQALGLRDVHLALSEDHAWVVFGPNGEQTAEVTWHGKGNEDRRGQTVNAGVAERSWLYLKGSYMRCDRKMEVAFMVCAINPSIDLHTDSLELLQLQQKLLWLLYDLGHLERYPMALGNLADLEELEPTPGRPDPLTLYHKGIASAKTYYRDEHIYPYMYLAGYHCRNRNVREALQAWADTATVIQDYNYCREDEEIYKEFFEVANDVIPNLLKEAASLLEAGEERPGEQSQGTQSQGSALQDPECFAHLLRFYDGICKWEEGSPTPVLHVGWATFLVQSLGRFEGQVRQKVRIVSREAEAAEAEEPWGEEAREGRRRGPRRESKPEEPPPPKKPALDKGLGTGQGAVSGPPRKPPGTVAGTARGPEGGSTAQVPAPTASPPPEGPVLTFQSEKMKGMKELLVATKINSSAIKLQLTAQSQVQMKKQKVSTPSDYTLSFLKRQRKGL

Drawing on ChEMBL document CHEMBL5723035, “Affinity Biochemical Literature for EUbOPEN Chemogenomic Library” (2024), this text covers IC50, Ki and Kd for 18 compounds.

Non-standard residues stand in square brackets, D forms with d. Residues, ends and D or L forms follow the SMILES beside them. *: point of attachment. Tyr(3-Cl) = N[C@@H](Cc1ccc(O)c(Cl)c1)C(=O)O; Benzoyl(3,5-Cl2) = O=C(c1cc(Cl)cc(Cl)c1)*; Lys(Et2) = CCN(CC)CCCC[C@H](N)C(=O)O; Gly(cPent) = N[C@H](C(=O)O)C1CCCC1; Cbz = O=C(OCc1ccccc1)*; NH(propargyl) = C#CCN*; CH2F = FC* Bounds are passed on as bounds.

T2 sequence (Q14781 whole entry): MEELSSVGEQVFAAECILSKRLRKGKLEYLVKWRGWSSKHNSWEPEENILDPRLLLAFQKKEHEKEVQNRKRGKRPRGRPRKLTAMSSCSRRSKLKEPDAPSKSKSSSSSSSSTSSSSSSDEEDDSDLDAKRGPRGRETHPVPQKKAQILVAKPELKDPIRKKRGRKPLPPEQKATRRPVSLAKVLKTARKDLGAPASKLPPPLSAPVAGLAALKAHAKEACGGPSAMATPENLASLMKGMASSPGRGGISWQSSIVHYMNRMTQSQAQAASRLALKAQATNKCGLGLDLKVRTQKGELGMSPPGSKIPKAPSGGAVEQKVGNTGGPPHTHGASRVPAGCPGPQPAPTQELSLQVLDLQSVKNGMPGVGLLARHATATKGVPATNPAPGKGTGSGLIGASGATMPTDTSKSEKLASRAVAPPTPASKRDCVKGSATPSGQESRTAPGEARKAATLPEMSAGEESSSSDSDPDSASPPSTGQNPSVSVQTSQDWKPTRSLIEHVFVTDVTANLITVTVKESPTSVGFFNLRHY
Sequence of sn-1-specific diacylglycerol lipase ABHD11 (Q8NFV4 whole entry): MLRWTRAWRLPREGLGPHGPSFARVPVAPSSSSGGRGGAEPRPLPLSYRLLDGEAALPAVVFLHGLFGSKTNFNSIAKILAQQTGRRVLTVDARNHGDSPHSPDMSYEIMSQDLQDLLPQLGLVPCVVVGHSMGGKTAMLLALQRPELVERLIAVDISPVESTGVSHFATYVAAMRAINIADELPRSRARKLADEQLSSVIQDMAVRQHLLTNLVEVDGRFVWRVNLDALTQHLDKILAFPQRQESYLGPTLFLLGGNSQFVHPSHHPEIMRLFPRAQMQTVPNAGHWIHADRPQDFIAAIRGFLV

The term IC50 denotes the concentration needed to halve the response being measured. Higher therefore signals a need for much substance. In the case of `N#Cc1ccc(-c2c3n(c4cccnc24)CCN(C2CC2)C3=O)cc1F` [PF-06445974], the IC50 in test [1] is < 1 nM. With `COc1ccc(-c2csc(N(C)C(=O)[C@@H]3CCCN3C#N)n2)nc1C#N`, in test [2], the IC50 was < 100 nM. On to `COC(=O)CC(NC(=O)C(C)NC(=O)C(NC(=O)C(CC(=O)OC)NC(=O)C(NC(=O)OCc1ccccc1)C(C)C)C(C)C)C(=O)CF` (stereo not drawn) (Cbz-VD(OMe)VAD(OMe)-CH2F; configuration not given here), for which the IC50 in test [3] was ~80 nM. Usually Ki stands for the equilibrium dissociation constant of an inhibitor or competing ligand from its target. For `CC[C@H](C)[C@H](NC(=O)[C@H](Cc1ccc(O)cc1)NC(=O)[C@@H](NC(=O)[C@H](CO)NC(=O)[C@H](CO)NC(=O)[C@H](CCSC)NC(=O)[C@@H]1CCCN1C(=O)[C@H](CC(=O)O)NC(C)=O)[C@@H](C)O)C(=O)N[C@@H](CCC(=O)O)C(=O)N[C@@H](CCC(=O)O)C(=O)N[C@@H](CC(C)C)C(=O)NCC(=O)N[C@@H](CCCCN)C(=O)N[C@@H](CCCNC(=N)N)C(=O)N[C@@H](CCC(=O)O)C(=O)N[C@H](C(=O)N[C@H](C(=O)N[C@H](C(=O)N1CCC[C@H]1C(=O)N1CCC[C@H]1C(=O)N[C@@H](CCCCN)C(=O)N[C@@H](Cc1ccc(O)cc1)C(=O)N[C@@H](CCCNC(=N)N)C(=O)N[C@@H](CCC(=O)O)C(=O)N[C@@H](CC(C)C)C(=O)N[C@@H](CC(C)C)C(=O)N[C@@H](C)C(N)=O)[C@@H](C)CC)[C@@H](C)O)C(C)C` (Ac-DPMSSTYIEELGKREVTIPPKYRELLA-NH2), in test [4], the Ki was determined as 0.2 nM. The IC50 in [5] is ~60 nM; in test [6], ~30 nM.

For orientation: Kd means the free concentration of one partner at which half of the binding sites on the other are occupied at equilibrium, for simple one-to-one binding. Turning to `COc1cc(O)cc(CN2CCc3c(cc(Cn4ccn(C)c4=N)cc3-c3ccc(F)cc3C)C2=O)c1`, the Kd in test [7] is < 0.02 nM. For the same compound, the IC50 in [8] is 2.2 nM. As for `Cc1ccc2c(c1)nc(/C=C/c1cccc3cccnc13)n2-c1cccc(OCCCN2CCN(C)CC2)c1`, the IC50 in [9] was found to be 2.8 nM. As to `Cc1cc(Cl)cc(-c2c3sc(CN4C(=O)C5C(C4=O)C5(C)C)cc3nn2C)c1OC1CCNCC1` (stereo not drawn), half-maximal inhibition in test [10] (IC50) was put at 13.4 nM. Consider `O=C(c1cc(Cc2n[nH]c(=O)c3ccccc23)ccc1F)N1CC(CNC2CC2)C1`, for which the IC50 in test [11] came out at 1.4 nM; in test [12] it was 1 nM. For `CC(C)c1c(F)cccc1-c1ncc2[nH]c(=O)n(Cc3ccc(-c4nc(C(F)(F)F)cn4C)cc3)c2n1`, the IC50 in test [13] is < 50 nM.

For `Cc1nnn(C)c1-c1cnc2c3cc4cnn(C)c4cc3n([C@H](c3ccccc3)C3CCOCC3)c2c1`, in [14], the IC50 came to 2.7 nM.

As for `CC(F)(F)C(=O)N[C@@H](CC1(F)CCCC1)C(=O)NC1(C(=O)C(N)=O)CCC1`, affinity in test [15] was put at a Ki of 2.1 nM. `C#CCNC(=O)[C@H](CO)NC(=O)[C@H](CCCCN(CC)CC)NC(=O)[C@@H](NC(=O)[C@@H](NC(=O)[C@H](Cc1ccc(O)c(Cl)c1)NC(=O)c1cc(Cl)cc(Cl)c1)C1CCCC1)[C@@H](C)CC` ({Benzoyl(3,5-Cl2)}-[Tyr(3-Cl)][Gly(cPent)]I[Lys(Et2)]S-{NH(propargyl)}): the Kd stood at 80 nM in test [16] and 110 nM in test [17].

`CCn1c(=S)[nH]c2cc3c(NCc4ccccc4N4CCC(CO)CC4)ncnc3cc21` returned an IC50 in test [18] of 0.074 nM. The compound `CCC1CCCCN1C(=O)n1ncc(C(O)(c2ccccc2)c2ccccc2)n1` (stereo not drawn) displayed an IC50 in test [19] of 15 nM.

Take `Nc1cccc(Nc2ncc(-c3ccc(Cl)cc3)o2)c1`: the IC50 in test [20] was found to be 325 nM. Turning to `CC[C@@H](/C=C/C(=O)N1CCc2ccccc21)NC(=O)C1(N)CCOCC1`, the IC50 in test [21] is < 0.43 nM.

`CC(=O)N[C@@H](CCCCNC(=O)CSCCNC(=O)CCNC(=O)[C@H](O)C(C)(C)COP(=O)(O)OP(=O)(O)OC[C@H]1O[C@@H](n2cnc3c(N)ncnc32)[C@H](O)[C@@H]1OP(=O)(O)O)C(N)=O`: the IC50 in test [22] was ~50 nM. For `CC(C)N(C(=O)c1cc(F)ccc1Oc1cncnc1N1CC2(CCN(C[C@H]3CC[C@H](NS(C)(=O)=O)CC3)CC2)C1)C(C)C`, in [23], the affinity corresponds to a Ki of 0.104 nM.
